Where a name gives a salt, the structure may show the parent alone.
Columns and labels:
[1] = test system: NMDA receptor channel; experiment: [3H]MK-801-receptor association kinetics, repeatedly washed rat cerebral cortex membranes; type: binding
Experimental: (§1) Binding assays were performed in triplicate at 25° C. with repeatedly washed rat cerebral cortex membranes (80 μg protein) as described in Biochem. ibid. Assays were carried out in the absence or in the presence of 10^-4 M AP-5, or in the presence of 10 μM MgCl2 together with 1 μM L-glutamate and 1 μM glycine. Nonspecific binding was determined in samples containing 10^-4 M PCP. Data were expressed as the specific binding of [^3 H]MK-801 and analyzed according to the two-step binding model of interactions between noncompetitive blockers and the NMDA receptor channel. The model assumes a first order diffusion of the ligand from the outside into the interior of the channel, followed by association of the ligand with its receptor sites. Under the two extreme conditions employed here, viz., binding of [^3 H]MK-801 in the presence of agonists (unlimited diffusion) and in the absence of agonists (limited diffusion) the time courses of receptor occupation should respectively follow pseudo first order (eq. 1) and first order (eq. 2) kinetics:
([RL]eq-[RL])/[RL]eq≡exp.-(k1k2[L]/kb -k- 1)t eq. 1
1-{Kd [RL]/[L](RT ]-[RL ]}=exp.-Kb t eq. 2
where L, RT, RLeq and RL are respectively the ligand, the total number of binding sites, the bound ligand at equilibrium and at time t. ka and kb are the forward and background diffusion constants; k1 and k- 1 are the second order on-rate and the first order off-rate constants for the binding process. The overall equilibrium binding constant (Kd) is given by K- 1·kb /k1·k2.
FIG. 1A illustrates the time course of association of [^3 H] 801 (5 nM) with the NMDA receptor channel. Binding was determined at 25° C. as a function of time in the absence and in the presence of glutamate and glycine or in the presence of AP-5; whereas 1B illustrates the observed time constants (Kobs) derived from the pseudo first order plots of the association of 2, 5 and 8.6 nM [^3 H] 801 in the presence of glutamate and glycine plotted as a function of the ligand concentration. FIG. 1C is a first order plot (eq. 2) of [^3 H] 801-receptor association in the absence of agonists determined with ligand concentrations of 2 nM and 8.6 nM.

[2] = test system: NMDA receptor channel; experiment: Dissociation of [3H]MK-801-receptor complexes, initiated by 100 μM unlabeled PCP; type: binding, rat
Experimental: as §1
Samples were incubated at 25° C. with 8 nM [^3 H] 801 for 2 hr. The dissociation reaction was initiated by the addition of 100 μM unlabeled PCP. […] Reactions were terminated either immediately (zero time) or at the indicated times. Bo --amount of [^3 H]MK-801 bound at zero time. Bt --amount of [^3 H] 801 bound at time t.

[3] = test system: NMDA receptor channel; experiment: Equilibrium binding of [3H]MK-801 (Scatchard), rat cerebral cortex membranes; conditions: for Kd: 4 hr at 25° C., read-out: Kd determined at equilibrium
Experimental: as §1
FIG. 2 left illustrates the equilibrium binding of [^3 H] 801. Binding of [^3 H] 801 as a function of its concentration was assayed after incubation for 4 hr at 25° C. in the absence or in the presence of glutamate and glycine. Also shown are data for [^3 H] 801 binding to the receptor measured after their incubation for 3 hr followed by an additional 1 hr of incubation in the presence of 100 μM AP-5. Data are expressed in the form of Scatchard plot.

[4] = 5 nM ligand, with glutamate and glycine, 25° C.
[5] = presence of glutamate and glycine

Structure (SMILES) | effect on rate of [3H]MK-801-receptor association ([1]; AP-5 (10^-4 M) by itself, compared to control level) | effect on rate of [3H]MK-801-receptor dissociation ([2]; 100 μM AP-5 by itself, compared to control level) | effect on equilibrium binding of preequilibrated [3H]MK-801-receptor complexes ([3]; 3 hr incubation, then 1 hr with 100 μM AP-5) | incubation time to reach equilibrium ([1]; 5 nM ligand, absence of exogenous agonists, 25° C.) | association t1/2 [1, 4] | time to approach equilibrium [1, 4] | half times of the association reactions ([1]; absence of exogenous agonists, did not vary with ligand concentration) | apparent off-rate time constant (k-1) from association ([1]; presence of glutamate and glycine (FIG. 1B)) | Kd ([1]; presence of glutamate and glycine, read-out: kinetically derived dissociation constant (Kd), ratio of off-rate and on-rate constants) | increase in ligand-receptor binding immediately after onset of binding ([1]; with glutamate and glycine vs control without) | dissociation rate constant [2, 5] | Kd ([3]; absence of glutamate and glycine) | Kd [3, 5]
N[C@H](CCCP(=O)(O)O)C(=O)O [AP-5, D(-)2-amino-5-phosphovaleric acid] | decreases the rates | decreases the rates | did not alter the equilibrium binding | – | – | – | – | – | – | – | – | – | –
C[C@]12N[C@H](Cc3ccccc31)c1ccccc12 [[^3 H]MK-801, (+) 5 methyl-10,11 dihydro-5H-dibenzo[a,d]cyclohepten-5,10-imine maleate] | – | – | – | > 6 h | ~7 min | 45 to 60 min | 60 to 70 min | 0.075 min⁻¹ | 4.8 nM | ~ 9 times that of the control | 0.1 min⁻¹ | 2.1 nM | 4.2 nM
